The source of these data is ChEMBL document CHEMBL4665643 (Bioorg Med Chem Lett, 2019).

One data set concerns the target Janus Kinase (JAK) (Homo sapiens, UniProt P52333+P23458+O60674+P29597). Conditions: beas-2b.
Data set [1] is described as follows: in vitro. As to conditions: dog, MDCK.
Description: Apparent permeability across apical to basolateral side in MDCK cells at 10 uM incubated upto 180 mins by LC/MS-MS analysis
A short description of data set [2]: in vitro. Conditions: dog, MDCK. This is another data set of the same source.
Description: Efflux ratio of apparent permeability basolateral to apical over apical to basolateral side in MDCK cells at 10 uM incubated upto 180 mins by LC/MS-MS analysis
Data set [3] addresses Tyrosine-protein kinase JAK1 (Homo sapiens, UniProt P23458). Description: biochemical.
Description: Inhibition of recombinant human JAK1 (854 to 1154 residues) expressed in insect cells using Y1-B as substrate incubated for 30 mins by microfluidic mobility shift assay
For data set [4], the target named is Tyrosine-protein kinase JAK2 (Homo sapiens, UniProt O60674).
Tyrosine-protein kinase JAK2, sequence (O60674 whole entry): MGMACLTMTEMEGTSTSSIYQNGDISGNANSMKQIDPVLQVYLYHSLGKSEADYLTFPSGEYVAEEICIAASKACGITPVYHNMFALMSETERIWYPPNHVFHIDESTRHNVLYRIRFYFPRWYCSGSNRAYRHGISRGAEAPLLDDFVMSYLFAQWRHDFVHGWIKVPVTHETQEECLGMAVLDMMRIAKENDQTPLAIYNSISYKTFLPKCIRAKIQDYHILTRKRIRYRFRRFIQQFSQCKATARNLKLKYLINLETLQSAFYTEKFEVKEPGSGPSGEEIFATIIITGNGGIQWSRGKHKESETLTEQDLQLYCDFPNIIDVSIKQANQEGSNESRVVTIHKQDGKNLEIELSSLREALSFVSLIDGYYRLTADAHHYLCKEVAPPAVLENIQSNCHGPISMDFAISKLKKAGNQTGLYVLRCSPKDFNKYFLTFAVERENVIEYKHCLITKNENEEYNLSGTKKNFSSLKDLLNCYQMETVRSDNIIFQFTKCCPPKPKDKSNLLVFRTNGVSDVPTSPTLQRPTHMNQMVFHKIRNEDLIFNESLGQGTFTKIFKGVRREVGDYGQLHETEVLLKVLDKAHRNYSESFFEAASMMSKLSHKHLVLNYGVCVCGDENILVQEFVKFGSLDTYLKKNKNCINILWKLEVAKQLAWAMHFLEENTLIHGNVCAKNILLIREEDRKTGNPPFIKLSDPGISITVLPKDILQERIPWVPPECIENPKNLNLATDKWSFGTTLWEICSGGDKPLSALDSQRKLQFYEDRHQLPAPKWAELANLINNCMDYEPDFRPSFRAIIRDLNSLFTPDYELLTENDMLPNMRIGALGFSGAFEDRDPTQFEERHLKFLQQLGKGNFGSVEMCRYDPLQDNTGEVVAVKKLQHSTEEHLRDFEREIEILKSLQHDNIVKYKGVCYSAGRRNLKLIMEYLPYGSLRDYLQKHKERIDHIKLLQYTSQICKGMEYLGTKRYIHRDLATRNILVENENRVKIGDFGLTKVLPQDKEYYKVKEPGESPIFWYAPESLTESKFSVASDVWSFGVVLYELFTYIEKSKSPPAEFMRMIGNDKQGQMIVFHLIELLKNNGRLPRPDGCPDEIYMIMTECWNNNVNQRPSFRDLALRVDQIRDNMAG
Description: Inhibition of recombinant human JAK2 (812 to 1132 residues) expressed in insect cells using Y1-B as substrate incubated for 30 mins by microfluidic mobility shift assay

Structures are written as SMILES. Where only a bound is given, the exact number is not on record here.

Tyrosine-protein kinase JAK1, sequence (P23458 whole entry): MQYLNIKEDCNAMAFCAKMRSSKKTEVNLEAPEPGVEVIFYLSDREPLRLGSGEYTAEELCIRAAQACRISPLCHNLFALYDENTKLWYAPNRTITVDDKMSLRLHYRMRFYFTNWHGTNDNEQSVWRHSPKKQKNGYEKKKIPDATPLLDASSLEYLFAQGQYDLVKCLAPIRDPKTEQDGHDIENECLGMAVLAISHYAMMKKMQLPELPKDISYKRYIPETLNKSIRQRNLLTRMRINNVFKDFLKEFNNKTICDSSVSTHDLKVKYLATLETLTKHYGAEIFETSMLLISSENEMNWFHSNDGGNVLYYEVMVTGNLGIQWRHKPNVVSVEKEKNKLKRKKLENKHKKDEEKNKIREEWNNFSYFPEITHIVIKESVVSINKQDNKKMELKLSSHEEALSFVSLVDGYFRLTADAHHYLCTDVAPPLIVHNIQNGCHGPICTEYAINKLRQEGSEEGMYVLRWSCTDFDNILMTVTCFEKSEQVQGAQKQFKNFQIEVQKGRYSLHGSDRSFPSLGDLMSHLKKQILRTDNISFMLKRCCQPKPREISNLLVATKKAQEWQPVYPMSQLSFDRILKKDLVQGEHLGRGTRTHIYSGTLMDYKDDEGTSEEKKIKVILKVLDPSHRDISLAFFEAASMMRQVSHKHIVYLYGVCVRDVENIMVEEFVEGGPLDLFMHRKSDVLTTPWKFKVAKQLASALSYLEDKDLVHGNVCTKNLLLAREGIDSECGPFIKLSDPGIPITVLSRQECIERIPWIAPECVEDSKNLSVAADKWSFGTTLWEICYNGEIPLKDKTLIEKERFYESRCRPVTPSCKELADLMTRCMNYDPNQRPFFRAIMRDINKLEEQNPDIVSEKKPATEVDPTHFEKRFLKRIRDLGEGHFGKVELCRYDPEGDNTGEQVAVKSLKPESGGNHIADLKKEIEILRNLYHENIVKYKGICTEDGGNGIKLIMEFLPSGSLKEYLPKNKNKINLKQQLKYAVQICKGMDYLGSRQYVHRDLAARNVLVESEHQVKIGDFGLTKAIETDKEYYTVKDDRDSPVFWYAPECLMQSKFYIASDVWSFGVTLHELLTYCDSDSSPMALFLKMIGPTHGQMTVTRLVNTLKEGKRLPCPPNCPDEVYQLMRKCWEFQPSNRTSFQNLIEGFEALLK
Description for Janus Kinase (JAK): Inhibition of JAK in human BEAS-2B cells assessed as reduction in IL13-induced STAT6 phosphorylation incubated for 1 hr followed by IL13 addition and measured after 15 mins by immunofluorescence assay

On Janus Kinase (JAK), `C[C@@H](O)c1nc2cnc3[nH]ccc3c2n1[C@H]1CCCOC1` had an IC50 of 210 nM. In addition, in “in vitro [1]”, the Papp A→B at 3 h, 10 µM is 6.2 ×10⁻⁶ cm/s. The efflux ratio at 3 h, 10 µM in the data set “in vitro [2]” is 0.81. The same compound gave a Ki in data set [3] of 2.9 nM.

The compound `C#Cc1ccc2ncc(C(=O)Nc3c[nH]nc3-c3cc(Cl)ccc3OC(F)F)n2n1` had a Ki in data set [4] of 0.078 nM. For the same compound, the IC50 against Janus Kinase (JAK) came to 13 nM.

With `O=C(Nc1c[nH]nc1-c1ccccc1OC(F)F)c1cnn2cccnc12`, the Ki in data set [4] was 0.86 nM; in data set [3], 3.3 nM.

With `O=C(Nc1c[nH]nc1-c1cc(Cl)ccc1OC(F)F)c1cnc2[nH]ccc2n1`, the Ki stood at 0.96 nM in data set [4] and 5.6 nM in data set [3]. For the same compound, the IC50 at Janus Kinase (JAK) was 42 nM.

On to `O=C(Nc1c[nH]nc1-c1cc(Cl)ccc1OC(F)F)c1cncc2scnc12`, for which the Ki in data set [4] came to 0.17 nM; in data set [3], 0.51 nM. Moreover, at Janus Kinase (JAK), the IC50 stood at 9.2 nM.

As for `O=C(Nc1c[nH]nc1-c1cc(Cl)ccc1OC(F)(F)F)c1cnn2cccnc12`, the Ki in data set [4] was determined as 0.49 nM; in data set [3] it was 2.1 nM. The same compound displayed an IC50 at Janus Kinase (JAK) of 64 nM.

Consider `COc1ccc(Cl)cc1-c1nn(C)cc1NC(=O)c1cncc2[nH]nnc12`, for which the figures for the Ki in data set [4] and in data set [3] were 730 nM and 370 nM, respectively.

On to `O=C(Nc1c[nH]nc1-c1c(OC(F)F)ccc(Cl)c1F)c1cnn2cccnc12`, for which the results for the Ki in data set [4] and in data set [3] were 0.16 nM and 0.56 nM, respectively. For the same compound, at Janus Kinase (JAK), the IC50 is on record as 14 nM.

Consider `CCc1ccc(OC(F)F)c(-c2n[nH]cc2NC(=O)c2cnn3cccnc23)c1`, for which the Ki in data set [4] worked out at 0.19 nM; in data set [3], 0.53 nM. Besides, the IC50 against Janus Kinase (JAK) worked out at 13 nM.

For `COc1ccc(Cl)cc1-c1nn(C)cc1NC(=O)c1cncc2cn(C)nc12`, the Ki in data set [4] came out at 4.7 nM; in data set [3], 4.3 nM. At Janus Kinase (JAK), this compound registered an IC50 of 93 nM.

With `Cn1cc(NC(=O)c2cnn3cccnc23)c(-c2cc(Cl)ccc2C2CC2)n1`, the Ki in data set [4] was determined as 0.28 nM; in data set [3], 0.91 nM.

Consider `CCOc1ccc(Cl)cc1-c1n[nH]cc1NC(=O)c1cnn2cccnc12`, for which the Ki was 0.8 nM in data set [4] and 1.4 nM in data set [3]. At Janus Kinase (JAK), this compound showed an IC50 of 54 nM.

Turning to `COc1ccc(Cl)cc1-c1nc(C)sc1NC(=O)c1cnn2cccnc12`, the values for the Ki in data set [4] and in data set [3] were 0.45 nM and 0.99 nM, respectively. This compound also had an IC50 against Janus Kinase (JAK) of 58 nM.

As for `Cn1cc(NC(=O)c2cnn3cccnc23)c(-c2cc(Cl)ccc2CCO)n1`, the results for the inhibition constant (Ki) in data set [4] and in data set [3] were 4 nM and 12 nM, respectively.

For the compound `COc1ccc(Cl)cc1-c1nn(C)cc1NC(=O)c1cncc2cccnc12`, the values for the Ki in data set [4] and in data set [3] were 0.62 nM and 1.9 nM, respectively. The IC50 against Janus Kinase (JAK) came to 38 nM.

Regarding `CSc1ccc(Cl)cc1-c1nn(C)cc1NC(=O)c1cnn2cccnc12`, the Ki was found to be 0.23 nM in data set [4] and 0.46 nM in data set [3]. The compound further showed an IC50 on Janus Kinase (JAK) of 11 nM.

Consider `Cn1cc(NC(=O)c2cnn3cccnc23)c(-c2cc(Cl)ccc2CO)n1`, for which the Ki in data set [4] was 8.6 nM; in data set [3] it was 45 nM.

`O=C(Nc1c[nH]nc1-c1cc(Cl)ccc1OC(F)F)c1cnc2cccnn12`: the Ki amounted to 0.071 nM in data set [4] and 0.21 nM in data set [3]. The same compound came in with an IC50 against Janus Kinase (JAK) of 5 nM.

Consider `COc1cc(O)c(Cl)cc1-c1n[nH]cc1NC(=O)c1cnn2cccnc12`, for which the Ki in data set [4] came to 0.16 nM; in data set [3], 0.31 nM. At Janus Kinase (JAK), this compound registered an IC50 of 140 nM.

In the case of `CC(C)Oc1ccc(Cl)cc1-c1nn(C)cc1NC(=O)c1cnn2cccnc12`, the Ki worked out at 2 nM in data set [4] and 7.9 nM in data set [3].

Turning to `N#Cc1ccc(OC(F)F)c(-c2n[nH]cc2NC(=O)c2cnn3cccnc23)c1`, the results for the Ki in data set [4] and in data set [3] were 0.27 nM and 0.9 nM, respectively. The same compound yielded an IC50 against Janus Kinase (JAK) of 22 nM.

In the case of `O=C(Nc1c[nH]nc1-c1cc(Cl)ccc1OC(F)F)c1cncc2ccoc12`, the Ki in data set [4] worked out at 0.5 nM; in data set [3] it was 1.8 nM. Besides, the IC50 on Janus Kinase (JAK) is reported as 36 nM.

Consider `Cc1ccc(OC(F)F)c(-c2n[nH]cc2NC(=O)c2cnn3cccnc23)c1`, for which the Ki turned out to be 0.34 nM in data set [4] and 1.4 nM in data set [3]. At Janus Kinase (JAK), this compound displayed an IC50 of 27 nM.

For the compound `O=C(Nc1c[nH]nc1-c1cc(Cl)ccc1SC(F)F)c1cnn2cccnc12`, the Ki in data set [4] turned out to be 0.23 nM; in data set [3], 0.85 nM. The IC50 at Janus Kinase (JAK) is 26 nM.

In the case of `Cn1ncc(NC(=O)c2cnn3cccnc23)c1-c1cc(Cl)ccc1Cl`, the Ki in data set [4] was determined as 3.5 nM; in data set [3] it was 39 nM. For the same compound, the IC50 on Janus Kinase (JAK) is listed as above 1000 nM.

`O=C(Nc1c[nH]nc1-c1cc(Cl)c(O)cc1OC(F)F)c1cnn2cccnc12`: the Ki in data set [4] worked out at 0.057 nM; in data set [3], 0.11 nM. This compound also returned an IC50 against Janus Kinase (JAK) of 36 nM.

On to `COc1ccc(Cl)cc1-c1nn(C)cc1NC(=O)c1cncc2c[nH]nc12`, for which the results for the Ki in data set [4] and in data set [3] were 0.78 nM and 0.6 nM, respectively. Also, the IC50 at Janus Kinase (JAK) stood at 20 nM.

As for `Cn1cc(NC(=O)c2cnn3cccnc23)c(-c2cc(Cl)ccc2O)n1`, the Ki in data set [4] turned out to be 13 nM; in data set [3], 32 nM.

For the compound `O=C(Nc1c[nH]nc1-c1cc(Cl)ccc1OC(F)F)c1snc2cccnc12`, the Ki stood at 0.085 nM in data set [4] and 0.47 nM in data set [3]. The compound also showed an IC50 against Janus Kinase (JAK) of 20 nM.

As for `CC[C@@H]1CN(C(=O)NCC(F)(F)F)C[C@@H]1c1cnc2cnc3[nH]ccc3n12` [UPADACITINIB], the Papp A→B at 3 h, 10 µM in the data set “in vitro [1]” stood at 3.6 ×10⁻⁶ cm/s.

For the compound `Cc1ccn2ncc(C(=O)Nc3c[nH]nc3-c3cc(Cl)ccc3OC(F)F)c2n1`, the results for the Ki in data set [4] and in data set [3] were 0.1 nM and 0.99 nM, respectively. The compound further yielded an IC50 against Janus Kinase (JAK) of 34 nM.

Take `COc1cc(F)c(Cl)cc1-c1n[nH]cc1NC(=O)c1cnn2cccnc12`: the inhibitory constant (Ki) in data set [4] came out at 0.79 nM; in data set [3], 2.2 nM. In addition, the concentration for half-maximal inhibition (IC50) against Janus Kinase (JAK) turned out to be 42 nM.

Turning to `O=C(Nc1c[nH]nc1-c1cc(F)ccc1OC(F)F)c1cnn2cccnc12`, the figures for the Ki in data set [4] and in data set [3] were 0.19 nM and 0.71 nM, respectively. For the same compound, the IC50 at Janus Kinase (JAK) worked out at 34 nM.

Consider `Cc1nc(-c2cc(Cl)ccc2OC(F)F)c(NC(=O)c2cnn3cccnc23)[nH]1`, for which the Ki came out at 1.1 nM in data set [4] and 3.9 nM in data set [3].

In the case of `O=C(Nc1c[nH]nc1-c1cc(Cl)ccc1OC(F)F)c1cnn2cc(F)cnc12`, the results for the Ki in data set [4] and in data set [3] were 2.4 nM and 7.8 nM, respectively.

In the case of `COc1ccc(Cl)c(F)c1-c1n[nH]cc1NC(=O)c1cnn2cccnc12`, the Ki came out at 0.29 nM in data set [4] and 0.95 nM in data set [3]. The IC50 at Janus Kinase (JAK) worked out at 15 nM.

`COc1cc2[nH]ncc2cc1-c1n[nH]cc1NC(=O)c1cnn2cccnc12` came in with an IC50 at Janus Kinase (JAK) of 370 nM.

In the case of `COc1ccc(Cl)cc1-c1nn(C)cc1NC(=O)c1cncc2[nH]cnc12`, the values for the Ki in data set [4] and in data set [3] were 2.6 nM and 5.7 nM, respectively.

Regarding `O=C(Nc1c[nH]nc1-c1cc(Cl)ccc1OC1CC1)c1cnn2cccnc12`, the Ki in data set [4] came out at 0.45 nM; in data set [3] it was 1.3 nM. At Janus Kinase (JAK), this compound displayed an IC50 of 21 nM.

With `COc1ccc(Cl)cc1-c1n[nH]cc1NC(=O)c1cnn2cccnc12`, the Ki was found to be 0.36 nM in data set [4] and 0.89 nM in data set [3]. The compound further came in with an IC50 against Janus Kinase (JAK) of 23 nM.

For the compound `COc1c(F)cc(Cl)cc1-c1n[nH]cc1NC(=O)c1cnn2cccnc12`, the Ki in data set [4] stood at 1.2 nM; in data set [3] it was 9.2 nM.

Broadly, the IC50 is the concentration that gives 50% inhibition. For orientation: Papp A→B means the apparent permeability from the apical to the basolateral side of a cell layer. Read a high Papp A→B as fast passage. For orientation: efflux ratio means the permeability from basolateral to apical divided by that in the opposite direction, in the common usage. In general, Ki refers to a dissociation constant, usually derived from enzyme kinetics or from competition with a known ligand. Lower therefore signals a stronger hold on the target.
